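Each compound was tested at five concentrations against cells in 96-well plates for 48 hours. GI50 = concentration required for 50% inhibition of growth. TGI denotes the concentration required for complete inhibition of growth.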 Where only a bound is given, the exact number is not on record here.

Among the test systems are SN12C renal; SW-620 colon; SF-539 CNS; CCRF-CEM leukemia; RXF 393 renal; HOP-62 NSCLC; MALME-3M melanoma; KM12 colon; HCC-2998 colon.
Experiment in all cases: DTP human tumour cell line panel, 48 h

`CCCCNC(=S)Nn1c(-c2ccccc2)nc2ccccc2c1=O`: the TGI in the assay on SN12C renal, in the assay on SW-620 colon, with SF-539 CNS, in the assay on CCRF-CEM leukemia, in the assay on RXF 393 renal and in the assay with HOP-62 NSCLC was > 100 µM throughout. For the same compound, the TGI in the assay with MALME-3M melanoma and in the assay on KM12 colon was > 100 µM throughout.

Consider `Cc1ccc(S(=O)(=O)NCCCN(CCCNS(=O)(=O)c2ccc(C)cc2)S(=O)(=O)c2ccc(C)cc2)cc1`, for which the total growth inhibition concentration (TGI) in the assay with SN12C renal, with SW-620 colon, with SF-539 CNS, with CCRF-CEM leukemia, in the assay on RXF 393 renal and in the assay with HOP-62 NSCLC was > 100 µM in each case. The TGI in the assay on HCC-2998 colon, in the assay with MALME-3M melanoma and in the assay on KM12 colon was > 100 µM each time.

On to `CN1CCC(O)C(CNC23CC4CC(CC(C4)C2)C3)C1` (configuration not stated), for which the TGI with SN12C renal, in the assay with SW-620 colon, in the assay on SF-539 CNS, with CCRF-CEM leukemia, in the assay with RXF 393 renal and in the assay with HOP-62 NSCLC was > 100 µM in each case. For the same compound, the TGI with MALME-3M melanoma and with KM12 colon was > 100 µM throughout.

For the compound `CCOC(=O)C(C(=O)c1ccccc1-c1ccccc1C(=O)O)=P(c1ccccc1)(c1ccccc1)c1ccccc1`, the TGI in the assay with SN12C renal was > 100 µM; with SW-620 colon it was > 100 µM; in the assay with SF-539 CNS it was 35.3 µM; in the assay on CCRF-CEM leukemia it was 77.1 µM; in the assay on RXF 393 renal, 73.1 µM; in the assay with HOP-62 NSCLC it was 40.5 µM. Besides, the total growth inhibition concentration (TGI) with HCC-2998 colon is 47.7 µM; in the assay on MALME-3M melanoma, 66.9 µM.

Consider `CN(C)CCCn1cnc2ncccc2c1=O`, for which the total growth inhibition concentration (TGI) in the assay with SN12C renal, in the assay on SW-620 colon, in the assay on SF-539 CNS, with CCRF-CEM leukemia, in the assay on RXF 393 renal and with HOP-62 NSCLC was > 100 µM throughout. Also, the concentration for total growth inhibition (TGI) in the assay on HCC-2998 colon, in the assay with MALME-3M melanoma and with KM12 colon was > 100 µM throughout.

Turning to `c1ccc([CH2][Sn]([CH2]c2ccccc2)([S]c2cccc3cccnc23)[S]c2cccc3cccnc23)cc1`, the GI50 with SN12C renal is 0.303 µM; with SW-620 colon it was 0.21 µM; in the assay on SF-539 CNS, 0.26 µM; in the assay with CCRF-CEM leukemia it was 0.102 µM; in the assay with HOP-62 NSCLC it was 0.764 µM; in the assay with HCC-2998 colon it was 0.139 µM. The TGI turned out to be 1.19 µM in the assay with SN12C renal; 0.813 µM in the assay on SW-620 colon; 0.662 µM with SF-539 CNS; 0.686 µM in the assay on CCRF-CEM leukemia; 6.94 µM with HOP-62 NSCLC; 0.334 µM with HCC-2998 colon.

`O=c1[nH]nc(-c2ccccc2)c(-c2ccccc2)c1-n1nc(-c2ccccc2)c2ccccc2c1=O`: the TGI in the assay with SN12C renal, in the assay on SW-620 colon, in the assay with SF-539 CNS, with CCRF-CEM leukemia, with HOP-62 NSCLC and with HCC-2998 colon was > 100 µM in each case. Also, the total growth inhibition concentration (TGI) with MALME-3M melanoma and in the assay on KM12 colon was > 100 µM each time.

For `O=C(CC1Sc2ccccc2NC1=O)Nc1cccc(Cl)c1` (configuration not stated), the TGI in the assay on SN12C renal was > 100 µM; in the assay on SW-620 colon it was > 100 µM; in the assay on SF-539 CNS it was > 100 µM; in the assay on CCRF-CEM leukemia it was > 100 µM; with RXF 393 renal, 80.4 µM; with HCC-2998 colon, > 100 µM. Besides, in the assay on MALME-3M melanoma, the total growth inhibition concentration (TGI) was > 100 µM.

For `C[N+](C)(C)CC(=O)N/N=C(/C=C/c1ccccc1)CC1OC(=O)c2ccccc21` (configuration not stated), the TGI with SN12C renal, in the assay on SW-620 colon, in the assay with SF-539 CNS, in the assay on CCRF-CEM leukemia, in the assay on RXF 393 renal and in the assay on HOP-62 NSCLC was > 100 µM throughout. The TGI with HCC-2998 colon, in the assay with MALME-3M melanoma and in the assay with KM12 colon was > 100 µM each time.

For `CC(C)NC(=O)OCc1nnn2c1C(OC(=O)NC(C)C)CC2` (configuration not stated), the concentration for total growth inhibition (TGI) in the assay with SN12C renal, in the assay with SW-620 colon, with SF-539 CNS, in the assay on RXF 393 renal, with HCC-2998 colon and in the assay with MALME-3M melanoma was > 100 µM each time. In the assay on KM12 colon, the TGI is > 100 µM.

Consider `N#Cc1c([N+](=O)[O-])cc(C(F)(F)F)cc1[N+](=O)[O-]`, for which the concentration for total growth inhibition (TGI) with SN12C renal was 27.3 µM; with SW-620 colon it was 8.77 µM; in the assay on SF-539 CNS, 11 µM; in the assay on RXF 393 renal it was 6.62 µM; in the assay on HOP-62 NSCLC, 32.8 µM; with MALME-3M melanoma, 25.5 µM. Further, the TGI with KM12 colon was 12.4 µM.

For `CCC12C=CCN3CC[C@]4(C(=C(C(=O)OC)[C@@H]1Nc1ncnc5c1ncn5C1OC(COC(C)=O)C(OC(C)=O)C1OC(C)=O)Nc1ccccc14)C32` (some centres not stated), the TGI in the assay on SN12C renal amounted to 4.45 µM; in the assay on SW-620 colon, 5.31 µM; with SF-539 CNS it was 4.4 µM; with CCRF-CEM leukemia, 6.81 µM; in the assay with RXF 393 renal, 3.92 µM; with HOP-62 NSCLC, 5.83 µM. Besides, the concentration for total growth inhibition (TGI) amounted to 4.56 µM in the assay with HCC-2998 colon, 15.1 µM in the assay with MALME-3M melanoma and 5.51 µM with KM12 colon.

For `CC(C)c1ccc2c(c1)CCC1C(C)(C)[C@@H](O)CC[C@]21C` (some centres not stated), the TGI with SN12C renal is 40.2 µM; with SF-539 CNS, 65.1 µM; in the assay on CCRF-CEM leukemia it was > 100 µM; with RXF 393 renal it was 54.3 µM; in the assay on HOP-62 NSCLC it was 37.4 µM; with HCC-2998 colon, 58.1 µM. In addition, the TGI worked out at 30.8 µM with MALME-3M melanoma and 71.5 µM with KM12 colon.

With `C=C1C(=O)OC2C1C(OC(=O)/C(=C/C)COC(C)=O)CC1(CO1)C1C(OC(=O)/C(=C/C)CO)C=C(C)C21` (configuration not stated), the TGI with SN12C renal was found to be 3.81 µM; in the assay on SW-620 colon it was 9.56 µM; with SF-539 CNS it was 19.5 µM; in the assay on CCRF-CEM leukemia, 2.13 µM; in the assay on RXF 393 renal it was 2.31 µM; with HCC-2998 colon it was 3.39 µM. Moreover, the results for the TGI in the assay with MALME-3M melanoma and with KM12 colon were 3.32 µM and 15.3 µM, respectively.

For the compound `CC(=O)Oc1c(-c2ccccc2)[nH]c2cc([N+](=O)[O-])c(/C(Cl)=C/c3ccccc3)cc12`, the TGI in the assay with SN12C renal was determined as 19.4 µM; in the assay on SW-620 colon, 29.3 µM; in the assay on CCRF-CEM leukemia, 29.5 µM; in the assay with HOP-62 NSCLC, 61.5 µM; with KM12 colon it was 16.3 µM.

The record behind these values is PubChem BioAssay (NCI).
